Source: ChEMBL document CHEMBL1201862, “PubChem BioAssay data set” (2004)
Activity calls are given as the source filed them.

How the values were obtained:
[1] = target: Luciferin 4-monooxygenase (Photinus pyralis, UniProt P08659); experiment: inhibition of purified Photinus pyralis luciferase – biochemical, luminescence, dose response (AID 1891)
[2] = target: T1, Zinc finger protein mex-5 (Caenorhabditis elegans, UniProt Q9XUB2); experiment: potency of MEX-5 RNA-binding blockers – biochemical, C. elegans, fluorescence polarization, dose response (AID 1960)
T1 sequence (Q9XUB2 whole entry): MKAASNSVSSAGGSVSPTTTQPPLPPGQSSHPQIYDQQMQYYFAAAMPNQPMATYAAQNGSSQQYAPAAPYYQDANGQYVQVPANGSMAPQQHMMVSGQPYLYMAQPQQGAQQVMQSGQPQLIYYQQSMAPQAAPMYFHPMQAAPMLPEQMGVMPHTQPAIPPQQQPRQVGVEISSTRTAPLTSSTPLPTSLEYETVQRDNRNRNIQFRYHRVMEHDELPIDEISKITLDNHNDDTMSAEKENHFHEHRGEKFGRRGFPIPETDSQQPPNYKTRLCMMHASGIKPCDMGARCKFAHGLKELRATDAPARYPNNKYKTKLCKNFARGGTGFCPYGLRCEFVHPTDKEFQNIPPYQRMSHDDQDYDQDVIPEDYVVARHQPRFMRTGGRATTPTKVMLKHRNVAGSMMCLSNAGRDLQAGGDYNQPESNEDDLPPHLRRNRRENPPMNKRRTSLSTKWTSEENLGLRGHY

[3] = target: T2, RNA-binding protein pos-1 (Caenorhabditis elegans, UniProt G5EF15); experiment: disruptors of C. elegans POS-1 RNA interaction – biochemical, fluorescence polarization, dose response (AID 1964);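 further: purified POS-1 fused to maltose binding protein made in E. coli; potency of compounds blocking POS-1 binding to fluorescent RNA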
T2 sequence (G5EF15 whole entry): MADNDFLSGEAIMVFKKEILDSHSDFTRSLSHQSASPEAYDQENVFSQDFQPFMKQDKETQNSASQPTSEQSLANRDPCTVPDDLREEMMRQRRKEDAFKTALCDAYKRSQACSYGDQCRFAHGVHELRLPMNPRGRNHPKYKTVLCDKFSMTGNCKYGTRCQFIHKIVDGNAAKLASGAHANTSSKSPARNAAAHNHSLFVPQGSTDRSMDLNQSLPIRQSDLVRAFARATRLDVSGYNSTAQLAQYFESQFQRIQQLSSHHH

[4] = Luminescence Cell-Based Dose Confirmation HTS to Identify Inhibitors of Platelet Dense Granule Release. [Related pubchem assays: 1663 (Primary HTS), 1678 (Summary of Project)]; type: functional
[5] = target: T3, Leucine aminopeptidase (Plasmodium falciparum 3D7, UniProt Q8IL11); experiment: P. falciparum M17LAP inhibitors, primary screen, biochemical, fluorogenic H-Leu-NHMec substrate, 1536-well (AID 1619); type: functional
T3 sequence (Q8IL11 whole entry): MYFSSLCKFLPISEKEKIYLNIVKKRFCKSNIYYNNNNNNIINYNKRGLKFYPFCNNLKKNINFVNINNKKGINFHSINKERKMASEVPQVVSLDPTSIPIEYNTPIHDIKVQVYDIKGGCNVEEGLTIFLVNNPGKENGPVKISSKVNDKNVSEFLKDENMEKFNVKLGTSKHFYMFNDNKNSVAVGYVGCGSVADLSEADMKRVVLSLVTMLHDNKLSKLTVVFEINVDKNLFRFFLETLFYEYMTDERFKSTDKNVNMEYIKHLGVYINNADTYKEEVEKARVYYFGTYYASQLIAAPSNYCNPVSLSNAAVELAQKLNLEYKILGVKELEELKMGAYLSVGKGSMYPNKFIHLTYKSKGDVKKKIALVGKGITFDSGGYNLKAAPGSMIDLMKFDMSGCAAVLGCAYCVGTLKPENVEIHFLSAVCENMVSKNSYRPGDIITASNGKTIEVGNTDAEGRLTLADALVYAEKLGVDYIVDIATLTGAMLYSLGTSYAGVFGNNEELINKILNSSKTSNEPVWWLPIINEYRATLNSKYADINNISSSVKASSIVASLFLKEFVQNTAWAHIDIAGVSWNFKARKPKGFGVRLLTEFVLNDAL

[6] = system: H4; experiment: Luminescence Cell-Based Dose Response HTS to Identify Activators of 5'UTR Stem-Loop Driven Prion Protein mRNA Translation in H4 Neuroglioblastoma Cells. [Related pubchem assays: 1829 (Project Summary), 1814 (Primary HTS)]; type: functional; conditions: Homo sapiens
[7] = Luminescence Cell-Based Dose Confirmation HTS to Identify Activators of 5'UTR Stem-Loop Driven Alpha-Synuclein mRNA Translation in H4 Neuroglioblastoma Cells. [Related pubchem assays: 1829 (Project Summary), 1814 (Primary HTS)]; type: functional
[8] = Luminescence Cell-Based Dose Response HTS to Identify Activators of Luciferase Translation or Activity in H4 […] Cells. [Related pubchem assays: 1829 (Project Summary), 1814 (Primary HTS)]; type: functional
[9] = target: T4, Protein RecA (Mycobacterium tuberculosis, UniProt P9WHJ3); experiment: Fluorescence Cell-Free Homogeneous Dose Retest to Identify Inhibitors of RecA-Intein Splicing Activity. [Related pubchem assays (depositor defined):AID2097, AID2223, AID489010, AID492950]; type: functional
T4 sequence (P9WHJ3 whole entry): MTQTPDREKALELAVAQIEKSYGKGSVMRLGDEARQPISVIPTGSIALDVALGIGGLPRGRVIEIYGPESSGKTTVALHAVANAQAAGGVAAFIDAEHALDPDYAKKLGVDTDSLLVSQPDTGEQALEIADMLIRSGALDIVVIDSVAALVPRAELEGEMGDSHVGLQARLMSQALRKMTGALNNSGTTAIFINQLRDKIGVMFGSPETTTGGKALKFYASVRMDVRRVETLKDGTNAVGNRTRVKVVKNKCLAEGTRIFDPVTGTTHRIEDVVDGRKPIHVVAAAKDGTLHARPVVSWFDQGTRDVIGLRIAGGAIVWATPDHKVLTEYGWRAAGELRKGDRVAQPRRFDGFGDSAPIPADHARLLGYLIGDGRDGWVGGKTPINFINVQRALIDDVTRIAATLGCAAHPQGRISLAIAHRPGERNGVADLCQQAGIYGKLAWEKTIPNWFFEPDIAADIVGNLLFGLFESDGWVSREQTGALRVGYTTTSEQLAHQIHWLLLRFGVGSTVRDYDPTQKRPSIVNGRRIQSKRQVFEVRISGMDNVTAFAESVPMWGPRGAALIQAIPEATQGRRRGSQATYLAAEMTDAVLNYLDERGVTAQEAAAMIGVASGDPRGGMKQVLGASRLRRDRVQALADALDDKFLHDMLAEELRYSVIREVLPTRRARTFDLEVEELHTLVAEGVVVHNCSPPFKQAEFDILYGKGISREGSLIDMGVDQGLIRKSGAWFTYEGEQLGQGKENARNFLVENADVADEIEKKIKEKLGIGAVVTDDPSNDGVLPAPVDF

[10] = target: T5, Replicative DNA helicase DnaB (Mycobacterium tuberculosis, UniProt P9WMR3); experiment: DnaB intein splicing inhibitors, dose response, biochemical, cell-free fluorescence (AID 449749); type: functional
T5 sequence (P9WMR3 whole entry): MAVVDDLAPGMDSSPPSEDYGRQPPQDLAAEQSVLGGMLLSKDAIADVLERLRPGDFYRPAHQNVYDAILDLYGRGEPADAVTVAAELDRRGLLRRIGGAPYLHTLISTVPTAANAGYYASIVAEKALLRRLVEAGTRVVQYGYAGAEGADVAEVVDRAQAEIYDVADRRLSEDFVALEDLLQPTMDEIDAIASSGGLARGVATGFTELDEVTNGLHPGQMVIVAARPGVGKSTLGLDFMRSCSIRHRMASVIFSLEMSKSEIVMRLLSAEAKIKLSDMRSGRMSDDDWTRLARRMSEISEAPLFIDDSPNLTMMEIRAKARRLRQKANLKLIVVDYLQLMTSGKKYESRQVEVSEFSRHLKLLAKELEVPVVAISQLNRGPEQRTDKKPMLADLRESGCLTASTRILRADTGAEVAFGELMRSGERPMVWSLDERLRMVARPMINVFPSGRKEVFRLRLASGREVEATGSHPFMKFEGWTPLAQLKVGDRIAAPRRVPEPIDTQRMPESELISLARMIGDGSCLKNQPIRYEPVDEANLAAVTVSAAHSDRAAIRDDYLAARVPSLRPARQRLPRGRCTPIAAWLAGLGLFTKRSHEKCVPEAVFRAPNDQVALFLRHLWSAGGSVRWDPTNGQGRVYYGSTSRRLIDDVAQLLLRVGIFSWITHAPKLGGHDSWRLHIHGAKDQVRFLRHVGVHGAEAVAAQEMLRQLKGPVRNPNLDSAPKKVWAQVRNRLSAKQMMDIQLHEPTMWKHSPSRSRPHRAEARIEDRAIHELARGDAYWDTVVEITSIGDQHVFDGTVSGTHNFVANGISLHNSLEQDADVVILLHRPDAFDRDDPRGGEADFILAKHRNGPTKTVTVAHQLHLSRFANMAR

[11] = P. falciparum Dd2 growth inhibitors, dose response, SYBR Green, cherry-picked samples (AID 1159567); type: functional, cell-based
[12] = target: Cytochrome P450 2C19 (Homo sapiens, UniProt P33261); experiment: Cytochrome panel assay with activity outcomes. Panel member name: p450-cyp2c19 Compounds with AC50 equal or less than 10 uM are considered active; type: functional; conditions: read-out: AC50
Cytochrome P450 2C19, sequence (P33261 whole entry): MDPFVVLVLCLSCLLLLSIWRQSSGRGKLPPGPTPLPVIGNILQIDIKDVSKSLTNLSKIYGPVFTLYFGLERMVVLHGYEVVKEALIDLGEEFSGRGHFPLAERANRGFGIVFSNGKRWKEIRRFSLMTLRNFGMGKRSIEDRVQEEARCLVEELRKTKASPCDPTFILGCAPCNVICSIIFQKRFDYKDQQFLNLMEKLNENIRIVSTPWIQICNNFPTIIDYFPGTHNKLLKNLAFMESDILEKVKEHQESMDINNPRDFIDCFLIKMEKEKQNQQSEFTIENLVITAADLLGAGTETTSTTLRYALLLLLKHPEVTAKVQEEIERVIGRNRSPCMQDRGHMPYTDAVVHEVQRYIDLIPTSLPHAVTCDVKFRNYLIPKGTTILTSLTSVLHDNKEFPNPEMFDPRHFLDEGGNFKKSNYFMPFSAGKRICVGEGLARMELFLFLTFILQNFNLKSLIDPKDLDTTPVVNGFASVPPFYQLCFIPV

[13] = target: T6, Cytochrome P450 1A2 (Homo sapiens, UniProt P05177);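 further: PubChem cytochrome P450 panel assay, CYP1A2 panel member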
T6 sequence (P05177 whole entry): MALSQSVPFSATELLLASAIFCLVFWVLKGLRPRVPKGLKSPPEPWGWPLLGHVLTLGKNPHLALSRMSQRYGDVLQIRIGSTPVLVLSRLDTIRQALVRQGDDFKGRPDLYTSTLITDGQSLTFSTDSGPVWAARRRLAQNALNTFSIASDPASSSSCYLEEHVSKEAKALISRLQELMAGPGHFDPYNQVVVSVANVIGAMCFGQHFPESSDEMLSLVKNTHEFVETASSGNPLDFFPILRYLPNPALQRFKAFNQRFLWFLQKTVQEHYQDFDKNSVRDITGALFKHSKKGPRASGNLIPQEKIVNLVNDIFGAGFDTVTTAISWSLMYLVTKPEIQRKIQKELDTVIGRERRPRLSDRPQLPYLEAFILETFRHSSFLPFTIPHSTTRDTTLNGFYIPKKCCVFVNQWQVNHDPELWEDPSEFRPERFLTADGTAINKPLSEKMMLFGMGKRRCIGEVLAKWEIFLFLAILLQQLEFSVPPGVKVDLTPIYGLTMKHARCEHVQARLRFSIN

Luciferin 4-monooxygenase, sequence (P08659 whole entry): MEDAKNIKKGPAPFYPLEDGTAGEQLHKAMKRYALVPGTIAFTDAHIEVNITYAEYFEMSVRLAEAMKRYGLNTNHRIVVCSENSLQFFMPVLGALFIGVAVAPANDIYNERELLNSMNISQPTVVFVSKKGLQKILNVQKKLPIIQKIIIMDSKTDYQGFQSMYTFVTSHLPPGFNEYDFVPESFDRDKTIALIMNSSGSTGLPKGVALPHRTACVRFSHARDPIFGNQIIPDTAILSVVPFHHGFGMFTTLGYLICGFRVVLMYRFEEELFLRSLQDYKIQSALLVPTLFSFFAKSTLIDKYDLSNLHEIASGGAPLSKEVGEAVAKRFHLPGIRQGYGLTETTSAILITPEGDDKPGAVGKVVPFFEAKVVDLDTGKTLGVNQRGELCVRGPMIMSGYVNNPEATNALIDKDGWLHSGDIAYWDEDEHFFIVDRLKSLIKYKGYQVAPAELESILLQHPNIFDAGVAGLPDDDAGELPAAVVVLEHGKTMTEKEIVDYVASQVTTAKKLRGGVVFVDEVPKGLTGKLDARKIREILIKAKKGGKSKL

With `CSc1nnc(N2C(=O)C(O)=C(C(=O)c3ccco3)C2c2cccc(Cl)c2)s1` (configuration not stated) the EC50 [1] was > 112 µM (not active), the EC50 [2] was 14.3 µM (active) and the EC50 [3] was 31.3 µM (active). The EC50 [4] was > 112 µM (not active).
For `O=C1CCC/C1=c1\s/c(=C\c2cccnc2)c(=O)n1-c1ccccc1`, the EC50 [2] was 42 µM (active) and the EC50 [3] was > 300 µM (not active).
With `COc1ccc2cc(/C=C3\SC(=S)NC3=O)c(N3CCOCC3)nc2c1` the IC50 [5] was 1.76 µM (active).
In the case of `C/N=C(\c1ccc(C)cc1)n1c(=S)nc(-c2ccc(C)cc2)n(C)c1=S`, the EC50 [6] was 21.3 µM (active), the EC50 [7] was > 120 µM (not active) and the EC50 [8] was 15.4 µM (active).
In the case of `Cc1noc(C)c1S(=O)(=O)NC1CCN(Cc2ccccc2)CC1`, the EC50 [2] was 35.3 µM (active) and the EC50 [3] was 49.2 µM (active).
For `N#CC1=C(N)OC2=C(C(=O)CCC2)[C@]12C(=O)N(CC(N)=O)c1ccccc12`, the EC50 [2] was > 300 µM (not active) and the EC50 [3] was > 300 µM (not active).
With `O=C(Nc1ccccc1)NC(Cc1ccc(O)cc1)C(=O)O` (configuration not stated) the IC50 [5] was 34.7 µM (active).
In the case of `O=C(O)CCc1nnc(SCC(=O)Nc2ccc(Cl)c(C(F)(F)F)c2)nc1O`, the IC50 [5] was 2.82 µM (active).
With `COC(=O)c1c(NC(=O)/C=C/C(=O)O)sc(C)c1-c1ccc(C)c(C)c1` the EC50 [9] was 5.69 µM (active), the AC50 [10] was 15.1 µM (active) and the IC50 [5] was 35.6 µM (active).
With `Cc1ccc2nc(NC(=O)COC(=O)c3ccncc3)sc2c1` the EC50 [6] was 11.4 µM (active), the EC50 [7] was > 120 µM (not active) and the EC50 [8] was > 120 µM (not active).
In the case of `O=C(Nc1c(C(=O)Nc2ccc3c(c2)OCCO3)cnn1-c1ccccc1Cl)c1ccco1`, the EC50 [6] was > 120 µM (not active), the EC50 [7] was 20 µM (active) and the EC50 [8] was 20.5 µM (active).
In the case of `Cc1cccc(C(=O)NCCCNC(=O)c2cccc(C)c2)c1`, the EC50 [2] was > 300 µM (not active) and the EC50 [3] was > 300 µM (not active).
In the case of `Cn1c(CCNC(=O)c2cccs2)nnc1SCC(=O)Nc1nc(-c2ccccc2)cs1`, the EC50 [6] was 27.3 µM (active), the EC50 [7] was > 120 µM (not active) and the EC50 [8] was 24.5 µM (active).
For `COc1cc2c(cc1C1C(C#N)=C(N)OC3=C1C(=O)CC(C)(C)C3)OCO2` (configuration not stated), the EC50 [2] was > 300 µM (not active) and the EC50 [3] was > 300 µM (not active).
For `O=C(C[C@@H]1C[C@H]2c3cc(NC(=O)Nc4ccccc4)ccc3O[C@H]2[C@H](CO)O1)NCc1ccccc1`, the AC50 [11] was 15.9 µM (active).
For `COc1ccc2c3c(n(C)c2c1)[C@H](CO)N(C(=O)c1ccccc1)CC31CCN(C(=O)c2ccccc2)CC1`, the AC50 [11] was 7.29 µM (active).
With `Cc1ccc(-c2nc(N3CCOCC3)s[n+]2-c2ccccc2)cc1.[O-][Cl+3]([O-])([O-])[O-]` the EC50 [6] was 31.5 µM (active), the EC50 [7] was 7.82 µM (active) and the EC50 [8] was 7.52 µM (active).
For `N#Cc1c(/N=C/C2C(=O)NC(=S)NC2=O)sc2c1CCCC2`, the IC50 [5] was 110 µM (active).
For `COc1ccc2[nH]cc(C(=O)CN3CCC(C)CC3)c2c1`, the EC50 [6] was 14.4 µM (active), the EC50 [7] was 5.71 µM (active) and the EC50 [8] was 17.6 µM (active).
With `CC(/C=C1\N=C(SCc2ccccc2Cl)SC1=O)=C\c1ccccc1` the AC50 [12] was 7.08 µM (inconclusive), the EC50 [2] was > 300 µM (not active) and the AC50 [13] was 4.47 µM (inconclusive). The EC50 [3] was > 300 µM (not active).
With `CCCCn1c(=O)[nH]c(=O)c2c1nc(-c1ccc(-c3ccccc3Br)o1)n2CCOC` the EC50 [2] was > 300 µM (not active) and the EC50 [3] was > 300 µM (not active).
